Assay results taken from PMC5218480 (PLoS ONE, 2017).

System: MV-4-11 cells
Assay: Gene expression microarray analysis (Affymetrix PrimeView) and GSEA
Type: cell-based, human
Design: RFU PODN (11730768_x_at) / Fold change /veh PODN (11730768_x_at) / RFU LINC00158 (11744669_a_at) / Fold change /veh LINC00158 (11744669_a_at) / RFU DUSP10 (11751237_a_at) / Fold change /veh DUSP10 (11751237_a_at) / RFU ID3 (11757404_x_at) / Fold change /veh ID3 (11757404_x_at) / RFU PLEKHG5 (11737974_s_at) / Fold change /veh PLEKHG5 (11737974_s_at) / RFU LRRC4B (11730491_at) / Fold change /veh LRRC4B (11730491_at) / RFU GIMAP4 (11747438_a_at) / Fold change /veh GIMAP4 (11747438_a_at) / RFU KRT8 (11758183_x_at) / Fold change /veh KRT8 (11758183_x_at) / RFU CNN1 (11734310_a_at) / Fold change /veh CNN1 (11734310_a_at) / RFU VPS37D (11726825_at) / Fold change /veh VPS37D (11726825_at) / RFU C10orf10 (11716522_x_at) / Fold change /veh C10orf10 (11716522_x_at) / RFU KIR2DL2 /// KIR2DL4 /// KIR2DL5A /// KIR2DL5B /// KIR2DS1 /// KIR2DS2 /// KIR2DS3 /// KIR2DS4 /// KIR3DL3 /// KIR3DL3 /// KIR3DS1 (11738374_at) / Fold change /veh KIR2DL2 /// KIR2DL4 /// KIR2DL5A /// KIR2DL5B /// KIR2DS1 /// KIR2DS2 /// KIR2DS3 /// KIR2DS4 /// KIR3DL3 /// KIR3DL3 /// KIR3DS1 (11738374_at) / RFU C1QL1 (11718748_at) / Fold change /veh C1QL1 (11718748_at) / RFU TMPRSS4 (11747572_a_at) / Fold change /veh TMPRSS4 (11747572_a_at) / RFU HAMP (11756126_x_at) / Fold change /veh HAMP (11756126_x_at) / RFU RNFT2 (11725882_a_at) / Fold change /veh RNFT2 (11725882_a_at) / RFU NR4A2 (11747474_a_at) / Fold change /veh NR4A2 (11747474_a_at) / RFU ABCC12 (11746883_a_at) / Fold change /veh ABCC12 (11746883_a_at) / RFU TMEM136 (11760407_x_at) / Fold change /veh TMEM136 (11760407_x_at) / RFU CLDN22 /// WWC2 (11732394_at) / Fold change /veh CLDN22 /// WWC2 (11732394_at) / RFU HLA-DPB1 (11760878_x_at) / Fold change /veh HLA-DPB1 (11760878_x_at) / RFU SPINT1 (11716480_a_at) / Fold change /veh SPINT1 (11716480_a_at) / RFU GAP43 (11754022_s_at) / Fold change /veh GAP43 (11754022_s_at) / RFU A4GNT (11735810_at) / Fold change /veh A4GNT (11735810_at) / RFU PRB3 (11715151_x_at) / Fold change /veh PRB3 (11715151_x_at) / RFU TUBB4B (11761932_at) / Fold change /veh TUBB4B (11761932_at) / RFU CAPN14 (11732068_a_at) / Fold change /veh CAPN14 (11732068_a_at) / RFU TMCC2 (11721928_a_at) / Fold change /veh TMCC2 (11721928_a_at) / RFU IRGQ (11745062_a_at) / Fold change /veh IRGQ (11745062_a_at) / RFU FAM174B (11720279_a_at) / Fold change /veh FAM174B (11720279_a_at) / RFU TMPRSS4 (11748680_a_at) / Fold change /veh TMPRSS4 (11748680_a_at) / RFU FAM212B (11763350_a_at) / Fold change /veh FAM212B (11763350_a_at) / RFU PLEKHG5 (11743358_a_at) / Fold change /veh PLEKHG5 (11743358_a_at) / RFU ZSCAN30 (11745921_a_at) / Fold change /veh ZSCAN30 (11745921_a_at) / RFU CMKLR1 (11741424_a_at) / Fold change /veh CMKLR1 (11741424_a_at) / RFU LOC101060620 /// MAPK8IP1 (11723275_at) / Fold change /veh LOC101060620 /// MAPK8IP1 (11723275_at) / RFU SPTSSB (11747773_x_at) / Fold change /veh SPTSSB (11747773_x_at) / RFU PRSS12 (11739890_at) / Fold change /veh PRSS12 (11739890_at) / RFU BIN1 (11741810_x_at) / Fold change /veh BIN1 (11741810_x_at) / RFU WNT11 (11732464_a_at) / Fold change /veh WNT11 (11732464_a_at) / RFU C10orf10 (11716521_a_at) / Fold change /veh C10orf10 (11716521_a_at) / RFU C5orf56 (11738089_at) / Fold change /veh C5orf56 (11738089_at) / RFU CYB561 (11721691_x_at) / Fold change /veh CYB561 (11721691_x_at) / RFU ANKRD19P (11752326_a_at) / Fold change /veh ANKRD19P (11752326_a_at) / RFU OR2T12 /// OR2T33 /// OR2T8 (11738714_s_at) / Fold change /veh OR2T12 /// OR2T33 /// OR2T8 (11738714_s_at) / RFU VCAN (11748164_a_at) / Fold change /veh VCAN (11748164_a_at) / RFU JSRP1 (11732532_at) / Fold change /veh JSRP1 (11732532_at) / RFU KRTAP10-11 (11738290_x_at) / Fold change /veh KRTAP10-11 (11738290_x_at) / RFU MYO3A (11730013_a_at) / Fold change /veh MYO3A (11730013_a_at) / RFU EBF3 (11725865_a_at) / Fold change /veh EBF3 (11725865_a_at) / RFU CAMK2N1 (11719241_x_at) / Fold change /veh CAMK2N1 (11719241_x_at) / RFU C5orf56 (11738088_a_at) / Fold change /veh C5orf56 (11738088_a_at) / RFU OLFML3 (11715873_a_at) / Fold change /veh OLFML3 (11715873_a_at) / RFU LOC100653217 /// NTM (11731650_a_at) / Fold change /veh LOC100653217 /// NTM (11731650_a_at) / RFU MAPK11 (11762145_a_at) / Fold change /veh MAPK11 (11762145_a_at) / RFU FIZ1 (11724087_x_at) / Fold change /veh FIZ1 (11724087_x_at) / RFU OASL (11726364_x_at) / Fold change /veh OASL (11726364_x_at) / RFU SOX15 (11748057_x_at) / Fold change /veh SOX15 (11748057_x_at) / RFU CD79A (11719716_a_at) / Fold change /veh CD79A (11719716_a_at) / RFU HIST1H1D (11736915_at) / Fold change /veh HIST1H1D (11736915_at) / RFU CASKIN2 (11723855_a_at) / Fold change /veh CASKIN2 (11723855_a_at) / RFU LOC730098 (11760151_x_at) / Fold change /veh LOC730098 (11760151_x_at) / RFU OR4N2 (11742367_at) / Fold change /veh OR4N2 (11742367_at) / RFU PRRT2 (11749266_a_at) / Fold change /veh PRRT2 (11749266_a_at) / RFU SNX32 (11753110_a_at) / Fold change /veh SNX32 (11753110_a_at) / RFU CDHR5 (11726645_a_at) / Fold change /veh CDHR5 (11726645_a_at) / RFU RCAN1 (11760418_a_at) / Fold change /veh RCAN1 (11760418_a_at) / RFU FAM167A (11723789_a_at) / Fold change /veh FAM167A (11723789_a_at) / RFU FAM26E (11764081_at) / Fold change /veh FAM26E (11764081_at) / RFU ISYNA1 (11749810_s_at) / Fold change /veh ISYNA1 (11749810_s_at) / RFU ACY1 (11761880_at) / Fold change /veh ACY1 (11761880_at) / RFU 11764098_at / Fold change /veh 11764098_at / RFU SAMD14 (11745864_x_at) / Fold change /veh SAMD14 (11745864_x_at) / RFU NPB (11741838_a_at) / Fold change /veh NPB (11741838_a_at) / RFU TMPRSS6 (11731388_a_at) / Fold change /veh TMPRSS6 (11731388_a_at) / RFU KRTAP10-2 (11738614_at) / Fold change /veh KRTAP10-2 (11738614_at) / RFU ARHGAP8 /// PRR5-ARHGAP8 (11727945_x_at) / Fold change /veh ARHGAP8 /// PRR5-ARHGAP8 (11727945_x_at) / RFU KRTAP5-7 /// NADSYN1 (11734609_at) / Fold change /veh KRTAP5-7 /// NADSYN1 (11734609_at) / RFU RASL12 (11751679_a_at) / Fold change /veh RASL12 (11751679_a_at) / RFU CDKN2B (11736163_a_at) / Fold change /veh CDKN2B (11736163_a_at) / RFU PRF1 (11729649_at) / Fold change /veh PRF1 (11729649_at) / RFU, ZNF638 /// ZNF638-IT1 / Fold change vs veh, ZNF638 /// ZNF638-IT1 / RFU, PANK3 / Fold change vs veh, PANK3 / RFU, SH3YL1 / Fold change vs veh, SH3YL1 / RFU, ZEB2 / Fold change vs veh, ZEB2 / RFU, NRIP1 / Fold change vs veh, NRIP1 / RFU, PTTG1IP / Fold change vs veh, PTTG1IP / RFU, CAPN2 / Fold change vs veh, CAPN2 / RFU, MED14 / Fold change vs veh, MED14 / RFU, SNORA58 / Fold change vs veh, SNORA58 / RFU, C1orf63 / Fold change vs veh, C1orf63 / RFU, LRRFIP1 / Fold change vs veh, LRRFIP1 / RFU, NDUFAF7 / Fold change vs veh, NDUFAF7 / RFU, SLC12A2 / Fold change vs veh, SLC12A2 / RFU, IBTK / Fold change vs veh, IBTK / RFU, ESF1 / Fold change vs veh, ESF1 / Fold change vs veh, TMEM50B / RFU, TAOK1 / Fold change vs veh, TAOK1 / RFU, ACBD3 / Fold change vs veh, ACBD3 / RFU, TMA16 / Fold change vs veh, TMA16 / RFU, RWDD3 / Fold change vs veh, RWDD3 / RFU, BCAT1 / Fold change vs veh, BCAT1 / RFU, EDEM3 / Fold change vs veh, EDEM3 / RFU, TMEM33 / Fold change vs veh, TMEM33 / RFU, WDR75 / Fold change vs veh, WDR75 / RFU, AHCTF1 / Fold change vs veh, AHCTF1 / RFU, TFRC / Fold change vs veh, TFRC / RFU, ZDHHC17 / Fold change vs veh, ZDHHC17 / RFU, NOM1 / Fold change vs veh, NOM1 / RFU, ARL8B / Fold change vs veh, ARL8B / RFU, ZBTB11 / Fold change vs veh, ZBTB11 / RFU, TAMM41 / Fold change vs veh, TAMM41 / RFU, KIAA1704 /// LOC100996395 / Fold change vs veh, KIAA1704 /// LOC100996395 / RFU, ING1 / Fold change vs veh, ING1 / RFU, TRMT61B / Fold change vs veh, TRMT61B / RFU, FUBP3 / Fold change vs veh, FUBP3 / RFU, TP53 / Fold change vs veh, TP53 / RFU, TNKS2 / Fold change vs veh, TNKS2 / RFU, ZFP14 / Fold change vs veh, ZFP14 / RFU, ACTR2 / Fold change vs veh, ACTR2 / RFU, PPP3R1 / Fold change vs veh, PPP3R1 / RFU, PIK3R1 / Fold change vs veh, PIK3R1 / RFU, HNRNPA1 / Fold change vs veh, HNRNPA1 / RFU, RNF170 / Fold change vs veh, RNF170 / RFU, ZNF28 / Fold change vs veh, ZNF28 / RFU, RNGTT / Fold change vs veh, RNGTT / RFU, OGT / Fold change vs veh, OGT / RFU, BRD1 / Fold change vs veh, BRD1 / RFU, MARS / Fold change vs veh, MARS / RFU, ZNF655 / Fold change vs veh, ZNF655 / RFU, FAHD1 / Fold change vs veh, FAHD1 / RFU, BDP1 / Fold change vs veh, BDP1 / RFU, LRRCC1 / Fold change vs veh, LRRCC1 / RFU, ARID1A / Fold change vs veh, ARID1A / RFU, ZNF146 / Fold change vs veh, ZNF146 / RFU, ZNF330 / Fold change vs veh, ZNF330 / RFU, GPN3 / Fold change vs veh, GPN3 / RFU, C9orf123 / Fold change vs veh, C9orf123 / RFU, N4BP2L2 / Fold change vs veh, N4BP2L2 / RFU, ARFIP1 / Fold change vs veh, ARFIP1 / RFU, FAM179B / Fold change vs veh, FAM179B / RFU, BCL10 / Fold change vs veh, BCL10 / RFU, UHRF1BP1L / Fold change vs veh, UHRF1BP1L / RFU, BET1 / Fold change vs veh, BET1 / RFU, CNOT2 / Fold change vs veh, CNOT2 / RFU, ZNF268 / Fold change vs veh, ZNF268 / Fold change vs veh, ZNF507 / RFU, DGCR2 / Fold change vs veh, DGCR2 / RFU, WDSUB1 / Fold change vs veh, WDSUB1 / Fold change vs veh, HSP90B1 /// MIR3652 / RFU, ADSS / Fold change vs veh, ADSS / RFU, GK / Fold change vs veh, GK / RFU, ZNF148 / Fold change vs veh, ZNF148 / RFU, TAF9 / Fold change vs veh, TAF9 / RFU, SLC1A5 / Fold change vs veh, SLC1A5 / RFU, SLMO2 / Fold change vs veh, SLMO2 / RFU, ABCC4 / Fold change vs veh, ABCC4 / RFU, LOC101060439 /// RAP1B / Fold change vs veh, LOC101060439 /// RAP1B / RFU, RFX7 / Fold change vs veh, RFX7 / RFU, GTPBP10 / Fold change vs veh, GTPBP10 / RFU, CNEP1R1 / Fold change vs veh, CNEP1R1 / RFU, BIVM-ERCC5 /// ERCC5 / Fold change vs veh, BIVM-ERCC5 /// ERCC5 / RFU, ILF3 / Fold change vs veh, ILF3 / RFU 11762660_at / Fold change /veh 11762660_at / RFU VCAN (11757783_s_at) / Fold change /veh VCAN (11757783_s_at) / RFU DDX43 (11728927_at) / Fold change /veh DDX43 (11728927_at) / RFU KRT8 (11758188_x_at) / Fold change /veh KRT8 (11758188_x_at) / RFU NKD1 (11759106_at) / Fold change /veh NKD1 (11759106_at) / RFU SRD5A1 (11742802_a_at) / Fold change /veh SRD5A1 (11742802_a_at) / RFU TPSAB1 /// TPSB2 (11721975_s_at) / Fold change /veh TPSAB1 /// TPSB2 (11721975_s_at) / RFU GSTM3 (11746129_a_at) / Fold change /veh GSTM3 (11746129_a_at) / RFU IL23R (11737362_x_at) / Fold change /veh IL23R (11737362_x_at) / RFU TMEM51 (11727254_a_at) / Fold change /veh TMEM51 (11727254_a_at) / RFU PIWIL2 (11732686_x_at) / Fold change /veh PIWIL2 (11732686_x_at) / RFU ORM1 (11744905_x_at) / Fold change /veh ORM1 (11744905_x_at) / RFU CCDC152 (11743942_at) / Fold change /veh CCDC152 (11743942_at) / RFU ECM1 (11717891_a_at) / Fold change /veh ECM1 (11717891_a_at) / RFU IL23R (11748794_a_at) / Fold change /veh IL23R (11748794_a_at) / RFU TNFAIP8L3 (11732012_x_at) / Fold change /veh TNFAIP8L3 (11732012_x_at) / RFU MBOAT4 (11741988_at) / Fold change /veh MBOAT4 (11741988_at) / RFU 11764193_at / Fold change /veh 11764193_at / RFU TMEM53 (11763286_at) / Fold change /veh TMEM53 (11763286_at) / RFU MAGEB2 (11727129_at) / Fold change /veh MAGEB2 (11727129_at) / RFU TMEM200A (11744735_a_at) / Fold change /veh TMEM200A (11744735_a_at) / RFU CCDC152 (11751479_a_at) / Fold change /veh CCDC152 (11751479_a_at) / RFU FAM211A (11726209_a_at) / Fold change /veh FAM211A (11726209_a_at) / RFU RGS16 (11746705_a_at) / Fold change /veh RGS16 (11746705_a_at) / RFU VCAN (11755009_s_at) / Fold change /veh VCAN (11755009_s_at) / RFU RHOB (11743442_s_at) / Fold change /veh RHOB (11743442_s_at) / RFU RGS16 (11720943_a_at) / Fold change /veh RGS16 (11720943_a_at) / RFU RGS16 (11720944_at) / Fold change /veh RGS16 (11720944_at) / RFU, VPS4B / Fold change vs veh, VPS4B / RFU, CREB1 / Fold change vs veh, CREB1 / RFU, DNAJC13 / Fold change vs veh, DNAJC13 / RFU, GNAQ / Fold change vs veh, GNAQ / RFU, CDK5R1 / Fold change vs veh, CDK5R1 / RFU, ZRANB3 / Fold change vs veh, ZRANB3 / RFU, CUL4A / Fold change vs veh, CUL4A / RFU, CCNY / Fold change vs veh, CCNY / RFU, UFL1 / Fold change vs veh, UFL1 / RFU, COG3 / Fold change vs veh, COG3 / RFU, DIAPH2 / Fold change vs veh, DIAPH2 / RFU, SKA2 / Fold change vs veh, SKA2 / RFU, AFF3 / Fold change vs veh, AFF3 / RFU, LMF1 / Fold change vs veh, LMF1 / RFU, IPO11 / Fold change vs veh, IPO11 / RFU, DFFB / Fold change vs veh, DFFB / RFU, FOXP1 / Fold change vs veh, FOXP1 / RFU, CARD8 / Fold change vs veh, CARD8 / RFU, STRN3 / Fold change vs veh, STRN3 / RFU, ADK / Fold change vs veh, ADK / RFU, RASSF2 / Fold change vs veh, RASSF2 / RFU, WIPF1 / Fold change vs veh, WIPF1 / RFU, LARP1B / Fold change vs veh, LARP1B / RFU, RASA1 / Fold change vs veh, RASA1 / RFU, RB1 / Fold change vs veh, RB1 / RFU, PPFIA1 / Fold change vs veh, PPFIA1 / RFU, MAT2A / Fold change vs veh, MAT2A / RFU, CCT5 / Fold change vs veh, CCT5 / RFU, WDR92 / Fold change vs veh, WDR92 / RFU, CUX1 / Fold change vs veh, CUX1 / RFU, TTC7A / Fold change vs veh, TTC7A / RFU, TMEM135 / Fold change vs veh, TMEM135 / RFU, DEPTOR / Fold change vs veh, DEPTOR / RFU, CPM / Fold change vs veh, CPM / RFU, DNAJB6 / Fold change vs veh, DNAJB6 / RFU, CACNA2D3 / Fold change vs veh, CACNA2D3 / RFU, DTX4 / Fold change vs veh, DTX4 / RFU, TFCP2 / Fold change vs veh, TFCP2 / RFU, GMCL1 /// GMCL1P1 / Fold change vs veh, GMCL1 /// GMCL1P1 / RFU, AEBP2 / Fold change vs veh, AEBP2 / RFU, SNHG1 /// SNORD22 /// SNORD25 /// SNORD26 /// SNORD27 /// SNORD28 /// SNORD29 /// SNORD31 / Fold change vs veh, SNHG1 /// SNORD22 /// SNORD25 /// SNORD26 /// SNORD27 /// SNORD28 /// SNORD29 /// SNORD31 / Fold change (Aza/veh), C12orf56 (ProbeSet 11735607_a_at) / Fold change (ACY-1035/veh), C12orf56 (ProbeSet 11735607_a_at) / Fold change (Aza/veh), FGFR1OP (ProbeSet 11751329_s_at) / Fold change (ACY-1035/veh), FGFR1OP (ProbeSet 11751329_s_at) / Fold change (Aza/veh), VPS36 (ProbeSet 11739960_a_at) / Fold change (ACY-1035/veh), VPS36 (ProbeSet 11739960_a_at) / RFU SYPL1 (11715823_x_at) / Fold change /veh SYPL1 (11715823_x_at) / RFU IGFBP7 (11715501_s_at) / Fold change /veh IGFBP7 (11715501_s_at) / RFU REEP3 (11722064_at) / Fold change /veh REEP3 (11722064_at) / RFU IGLL1 (11728026_x_at) / Fold change /veh IGLL1 (11728026_x_at): dose or concentration left out as unconfirmed
Details: MV-4-11 cells, 48 hours

Structure (SMILES): Nc1ccc(-c2cccs2)cc1NC(=O)c1ccc2c(c1)cc(C1CC1)n2CCN1CCOCC1 [ACY-1035]
- RFU ECM1 (11717891_a_at): 18.49 RFU
